# Paper PMC4581724 (Analytical biochemistry, 2015)
# Read-outs that look alike come from different tables or passages of the source.
# How the values were obtained:
# Y72W CrAS3MT = format: binding, Chlamydomonas reinhardtii
# CrAS3MT [1] = target: T1, CrAS3MT (Chlamydomonas reinhardtii, UniProt K0BVM7); experiment: biochemical; format: biochemical
# T1 sequence (K0BVM7 1-379): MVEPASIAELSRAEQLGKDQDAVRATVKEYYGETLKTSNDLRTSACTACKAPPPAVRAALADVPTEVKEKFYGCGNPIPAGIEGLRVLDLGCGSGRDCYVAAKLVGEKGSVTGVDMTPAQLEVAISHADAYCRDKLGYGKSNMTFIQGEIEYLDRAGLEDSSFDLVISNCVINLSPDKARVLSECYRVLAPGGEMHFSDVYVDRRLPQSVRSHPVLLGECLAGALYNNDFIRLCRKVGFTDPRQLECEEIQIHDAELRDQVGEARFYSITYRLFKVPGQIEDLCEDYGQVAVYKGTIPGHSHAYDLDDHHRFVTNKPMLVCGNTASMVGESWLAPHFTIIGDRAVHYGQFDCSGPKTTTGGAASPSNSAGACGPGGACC
# CrAS3MT [2] = target: T1, CrAS3MT; format: biochemical
# SAM methyltransferases = settings: read-out: IC50 for SAM methyltransferases; cited from earlier work
molecule,measurement,setting,value
"CSS(C)(=O)=O [MMTS, methylmethanethiosulfonate]",effect on quenching of Y72W by As(III),Y72W CrAS3MT,significant reduction in quenching
same,effect on the fluorescence of Y72W (quenching),Y72W CrAS3MT,quenched
same,protein fluorescence quenching at 20 μM MMTS,Y72W CrAS3MT,not substantially quenched
same,IC50,CrAS3MT [1]; read-out: IC50 for inhibition of SAH production (half-maximal inhibition),43 µM
"CCN1C(=O)C=CC1=O [NEM, N-ethylmaleimide]",IC50,CrAS3MT [1],140 µM
same,effect on arsenic methylation,CrAS3MT [2],completely inhibited
[Sb+3] [Sb(III)],effect on the fluorescence of Y72W (quenching),Y72W CrAS3MT,most quenching at the lowest concentration
"Nc1ncnc2c1ncn2[C@@H]1O[C@H](CC(N)CCC(N)C(=O)O)[C@@H](O)[C@H]1O (stereo partly shown) [sinefungin, 5′-deoxy-5′-(1,4-diamino-4-carboxybutyl)adenosine]",effect on As(III)-induced fluorescence quenching,Y72W CrAS3MT,no effect
same,quenching of Y72W fluorescence by sinefungin,Y72W CrAS3MT,did not quench
same,IC50,CrAS3MT [1],0.5 µM
same,effect on formation of DMAs(V),CrAS3MT [2],significantly inhibited
same,IC50,SAM methyltransferases,0.1 to 20 µM
arsenite [As(III)],As(III) concentration at which activity could be detected,CrAS3MT [1],10^−8 molar
